Experimental data reported in ChEMBL document CHEMBL1201862, “PubChem BioAssay data set” (2004).
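Method: 48-hour compound exposure of cells in 96-well plates, five concentrations, linear interpolation of endpoints. At the GI50, growth is halved.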 The source made the active and inactive calls. Rule as the data show it: active = GI50 up to about 1.1 µM and inactive = higher.

What was measured:
Assay in all cases: NCI-60 cell line screen, 48 h
SK-MEL-2 = test system: SK-MEL-2
RPMI-8226 = test system: RPMI-8226
HCT-116 = test system: HCT-116
UACC-257 = test system: UACC-257
LOX IMVI = test system: LOX IMVI
MOLT-4 = test system: MOLT-4
HCT-15 = test system: HCT-15
U-251 = test system: U-251
SK-OV-3 = test system: SK-OV-3
SW-620 = test system: SW-620
SF-295 = test system: SF-295
A498 = test system: A498
CAKI-1 = test system: CAKI-1
Hs-578T = test system: Hs-578T
SNB-19 = test system: SNB-19
SN12C = test system: SN12C
DU-145 = test system: DU-145
IGROV-1 = test system: IGROV-1
Malme-3M = test system: Malme-3M
BT-549 = test system: BT-549

Measured: GI50

CC(NC(=O)c1ccc(NP(=O)(OCc2ccc([N+](=O)[O-])o2)N(C)CCCCCl)cc1)c1ccc(OCC2CCCCC2)c(C(N)=O)c1 (configuration not stated)
46 µM: HCT-15
inactive: SK-MEL-2 16.1 µM | RPMI-8226 4.86 µM | HCT-116 16.2 µM | UACC-257 13.4 µM | LOX IMVI 13.7 µM | MOLT-4 9.71 µM | U-251 19.4 µM | SK-OV-3 21.6 µM | SW-620 28.4 µM | SF-295 15.5 µM | A498 16.7 µM | CAKI-1 26.4 µM | Hs-578T 16.3 µM | SNB-19 28.2 µM | SN12C 18.9 µM | DU-145 29.3 µM | IGROV-1 15.9 µM

COc1ccc2nc(/C(N)=C\C#N)ccc2c1
> 100 µM: HCT-15
inactive: SK-MEL-2 49.5 µM | RPMI-8226 37.5 µM | HCT-116 20.3 µM | UACC-257 > 100 µM | Malme-3M > 100 µM | LOX IMVI 36 µM | MOLT-4 23.9 µM | U-251 60.5 µM | SW-620 > 100 µM | SF-295 93.8 µM | CAKI-1 > 100 µM | SNB-19 > 100 µM | SN12C 57.5 µM | DU-145 92.5 µM | IGROV-1 29.9 µM
active: Hs-578T 1.01 µM

C=C(C[N+](C)(C)C)N/N=C/c1oc(-c2ccc(OC)c(OC)c2)c(-c2ccc(OC)c(OC)c2)c1[N+](=O)[O-]
inactive: SK-MEL-2 16.7 µM | RPMI-8226 14.6 µM | HCT-116 17 µM | UACC-257 20.2 µM | Malme-3M > 10 µM | LOX IMVI 15 µM | MOLT-4 22.4 µM | U-251 19.5 µM | SK-OV-3 30.3 µM | SW-620 18.7 µM | SF-295 17.5 µM | A498 28.6 µM | CAKI-1 32.6 µM | SNB-19 34.4 µM | SN12C 16.7 µM | DU-145 34.1 µM | IGROV-1 18.1 µM
17.9 µM: HCT-15

O=C(Nc1cc2c(=O)oc3ccccc3c2oc1=O)c1cccnc1
> 100 µM: HCT-15
inactive: SK-MEL-2 83.2 µM | HCT-116 > 100 µM | UACC-257 > 100 µM | Malme-3M > 100 µM | LOX IMVI > 100 µM | BT-549 > 100 µM | MOLT-4 > 100 µM | U-251 35.6 µM | SK-OV-3 > 100 µM | SW-620 > 100 µM | SF-295 > 100 µM | CAKI-1 > 100 µM | SNB-19 73.5 µM | SN12C > 100 µM | DU-145 > 100 µM | IGROV-1 > 100 µM

CC(CO)(CBr)COC(=O)c1cc(Br)c(N)c(Br)c1 (configuration not stated)
> 100 µM: HCT-15
inactive: SK-MEL-2 > 100 µM | RPMI-8226 > 100 µM | HCT-116 94 µM | UACC-257 > 100 µM | LOX IMVI > 100 µM | BT-549 76.2 µM | MOLT-4 > 100 µM | U-251 54 µM | SK-OV-3 83.9 µM | SW-620 > 100 µM | SF-295 37.4 µM | A498 62.2 µM | CAKI-1 81.3 µM | SNB-19 54.7 µM | SN12C > 100 µM | DU-145 48.8 µM | IGROV-1 33.9 µM

Cc1cc(C)c(C#N)c(SC(=S)NC(=O)c2ccc(Cl)cc2)n1
inactive: SK-MEL-2 > 100 µM | RPMI-8226 > 100 µM | HCT-116 > 100 µM | UACC-257 > 100 µM | LOX IMVI > 100 µM | BT-549 > 100 µM | U-251 > 100 µM | SK-OV-3 > 100 µM | SW-620 > 100 µM | SF-295 > 100 µM | A498 > 100 µM | CAKI-1 > 100 µM | SNB-19 > 100 µM | DU-145 > 100 µM
> 100 µM: HCT-15

CCCC(=O)OC1=C(c2ccccc2)Sc2ccccc2-n2cccc21
inactive: RPMI-8226 > 10 µM | UACC-257 > 10 µM | Malme-3M > 10 µM | LOX IMVI > 10 µM | MOLT-4 > 10 µM | SK-OV-3 > 10 µM | SW-620 > 10 µM | SF-295 > 10 µM | CAKI-1 > 10 µM | SN12C > 10 µM | DU-145 > 10 µM | IGROV-1 > 10 µM
> 10 µM: HCT-15

Brc1ccc(/N=N/c2ccc3ccccc3n2)cc1
35.3 µM: HCT-15
inactive: SK-MEL-2 > 100 µM | RPMI-8226 18.1 µM | HCT-116 12.9 µM | UACC-257 82.8 µM | Malme-3M 12.8 µM | BT-549 14.5 µM | U-251 16.7 µM | SK-OV-3 22.9 µM | SW-620 82.6 µM | SF-295 24.8 µM | CAKI-1 14.1 µM | Hs-578T 18 µM | SNB-19 15.9 µM | SN12C 40.4 µM | DU-145 > 100 µM | IGROV-1 21.4 µM

N#Cc1nc(-c2ccccc2C(=O)O)oc1N
inactive: SK-MEL-2 > 100 µM | RPMI-8226 > 100 µM | HCT-116 > 100 µM | UACC-257 > 100 µM | Malme-3M > 100 µM | LOX IMVI > 100 µM | MOLT-4 > 100 µM | U-251 > 100 µM | SK-OV-3 > 100 µM | SW-620 > 100 µM | SF-295 > 100 µM | A498 > 100 µM | CAKI-1 > 100 µM | Hs-578T > 100 µM | SNB-19 > 100 µM | SN12C > 100 µM | DU-145 > 100 µM | IGROV-1 > 100 µM
> 100 µM: HCT-15

CNc1nnc(CCCCCCCCc2nnc(NC)o2)o1
27.8 µM: HCT-15
inactive: SK-MEL-2 > 100 µM | HCT-116 20.3 µM | UACC-257 51.8 µM | LOX IMVI 16.4 µM | BT-549 > 100 µM | MOLT-4 34.7 µM | U-251 22.2 µM | SK-OV-3 > 100 µM | SW-620 40.7 µM | SF-295 75.2 µM | A498 > 100 µM | CAKI-1 14.8 µM | SNB-19 > 100 µM | SN12C > 100 µM | DU-145 > 100 µM | IGROV-1 > 100 µM

COc1ccc2nc3cc(Cl)ccc3c(SCC(=O)Nc3ccccc3-c3ccccc3NC(=O)CSc3c4ccc(Cl)cc4nc4ccc(OC)cc34)c2c1
> 100 µM: HCT-15
inactive: SK-MEL-2 > 100 µM | RPMI-8226 > 100 µM | HCT-116 > 100 µM | UACC-257 > 100 µM | Malme-3M > 100 µM | LOX IMVI > 100 µM | MOLT-4 > 100 µM | U-251 > 100 µM | SK-OV-3 > 100 µM | SW-620 > 100 µM | SF-295 > 100 µM | A498 > 100 µM | CAKI-1 > 100 µM | SNB-19 > 100 µM | SN12C > 100 µM | IGROV-1 > 100 µM

O=S1(=O)OCCOS(=O)(=O)C1(F)Br
> 100 µM: HCT-15
inactive: SK-MEL-2 > 100 µM | RPMI-8226 > 100 µM | HCT-116 > 100 µM | UACC-257 > 100 µM | Malme-3M > 100 µM | LOX IMVI > 100 µM | MOLT-4 > 100 µM | U-251 > 100 µM | SK-OV-3 > 100 µM | SW-620 > 100 µM | SF-295 > 100 µM | CAKI-1 > 100 µM | Hs-578T > 100 µM | SNB-19 > 100 µM | SN12C > 100 µM | DU-145 > 100 µM

COc1ccc(OC)c(C2CCCc3c2cnc2nc(N)nc(N)c32)c1 (configuration not stated)
active: RPMI-8226 0.0695 µM | HCT-116 < 0.01 µM | UACC-257 < 0.01 µM | Malme-3M < 0.0238 µM | LOX IMVI < 0.01 µM | MOLT-4 < 0.0168 µM | SF-295 < 0.0143 µM | CAKI-1 0.0982 µM | SNB-19 0.0703 µM | SN12C < 0.01 µM | DU-145 0.0132 µM | IGROV-1 < 0.01 µM
inactive: SK-MEL-2 > 100 µM | Hs-578T > 57.3 µM
< 0.01 µM: HCT-15

O=c1c(Cc2ccccc2)c(-c2ccccc2)[nH]n1C1=NCCN1
7.74 µM: HCT-15
inactive: SK-MEL-2 28.4 µM | RPMI-8226 47 µM | HCT-116 24.6 µM | UACC-257 52.6 µM | Malme-3M 25.4 µM | LOX IMVI 15.5 µM | BT-549 > 100 µM | MOLT-4 35.5 µM | U-251 33.6 µM | SK-OV-3 > 100 µM | SW-620 38.6 µM | SF-295 43.6 µM | A498 > 100 µM | CAKI-1 72.1 µM | Hs-578T 39.4 µM | SNB-19 76.4 µM | IGROV-1 36.5 µM

O=C1c2c(ccc3c2CCC3)CC12Cc1cc3c(cc1C2)CCC3
inactive: SK-MEL-2 > 100 µM | RPMI-8226 > 100 µM | HCT-116 > 100 µM | UACC-257 > 100 µM | Malme-3M 20.1 µM | LOX IMVI > 100 µM | MOLT-4 > 100 µM | U-251 70.3 µM | SK-OV-3 > 100 µM | SW-620 > 100 µM | SF-295 > 100 µM | A498 > 100 µM | CAKI-1 > 100 µM | Hs-578T > 100 µM | SNB-19 > 100 µM | SN12C > 100 µM | DU-145 > 100 µM | IGROV-1 > 100 µM
> 100 µM: HCT-15

COC(=O)c1c(O)ccc(O)c1C(C(C)=O)C(C)=O
> 100 µM: HCT-15
inactive: SK-MEL-2 > 100 µM | RPMI-8226 > 100 µM | HCT-116 > 100 µM | UACC-257 > 100 µM | Malme-3M > 100 µM | LOX IMVI > 100 µM | MOLT-4 > 100 µM | U-251 > 100 µM | SK-OV-3 > 100 µM | SW-620 > 100 µM | SF-295 > 100 µM | A498 > 100 µM | CAKI-1 > 100 µM | SNB-19 > 100 µM | SN12C > 100 µM | IGROV-1 > 100 µM
